Assay results: US11014895B2, “Heterocyclic urea compound, and drug composition and application thereof” (CHINA PHARMACEUTICAL UNIVERSITY, priority 2017, dated 2021)

Legend:
[1] = target: T1, IDO1 enzyme in the Hela cell (Homo sapiens, UniProt P14902); assay: Cell activity: interferon γ-stimulated Hela cells, absorbance of supernatant at 480 nm; format: cell-based; conditions: interferon γ 100 ng/ml, 72 hours
T1 construct: endogenous in cells; host or cells: HeLa cells stimulated with interferon γ (100 ng/ml)
T1 sequence (P14902 whole entry): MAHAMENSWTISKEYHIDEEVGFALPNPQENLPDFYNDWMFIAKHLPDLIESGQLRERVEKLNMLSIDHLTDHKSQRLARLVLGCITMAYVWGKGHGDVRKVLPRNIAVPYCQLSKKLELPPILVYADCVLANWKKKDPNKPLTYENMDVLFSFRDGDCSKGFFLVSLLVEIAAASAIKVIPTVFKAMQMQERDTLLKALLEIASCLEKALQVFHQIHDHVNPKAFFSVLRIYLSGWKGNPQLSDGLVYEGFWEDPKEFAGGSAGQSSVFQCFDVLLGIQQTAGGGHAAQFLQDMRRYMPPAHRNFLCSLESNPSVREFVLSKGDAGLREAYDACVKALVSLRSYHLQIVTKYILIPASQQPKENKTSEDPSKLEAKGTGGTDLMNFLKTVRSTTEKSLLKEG
Procedure: (2) Method for Determining Cell Activity
Hela cells were cultured and passaged in a DMEM medium supplemented with antibiotics in a 37° C. CO2 incubator, inoculated into a 96-well plate for overnight culture, then 1 μl of heterocyclic urea compound with appropriate concentration was added to each well, and then 100 μl of interferon γ (final concentration was 100 ng/ml) was added. After the cells were continuously cultured for 72 hours, 70 μl of cell culture supernatant was added to a 96-well V-bottom plate, 5 μl of trichloroacetic acid (6.1 N) was added to each well, incubated at 50° C. for 30 min, then taken out and centrifuged at […] for 10 min. The above centrifuged supernatant was transferred to a 384-well microplate (20 μl/well), then 20 μl of 2% didimethylaminobenzaldehyde acetic acid solution was added to each well, shaken and mixed evenly, then photometric absorption was performed at 480 nm, and values were measured.

IDO1 enzyme = IDO1 enzyme (Homo sapiens, UniProt P14902); assay: Determination of biochemical activity of IDO1 enzyme (absorbance at 320 nm); conditions: room temperature, 3 hours
IDO1 enzyme, sequence (P14902 whole entry): as above
Procedure: (1) Method for Determining Biochemical Activity of IDO1 Enzyme
Firstly, 15 μl of buffer solution of sodium hydrogen phosphate (PH:7-8), 5 μl of reaction buffer solution containing a proper amount of IDO-1 enzyme and heterocyclic urea compound prepared by the invention were added into wells of a microplate, mixed evenly, and reacted at room temperature for 3 hours; then a light absorption value at 320 nm wavelength was detected by using Envision Multilabel Reader of PE company, an inhibition rate of the heterocyclic urea compound on the enzyme reaction was calculated according to an absorption ratio, and an IC50 value of the heterocyclic urea compound was calculated through analysis by GraphPad.

Row | Compound | IC50 [1] [µM] | IC50 (IDO1 enzyme) [µM]
1 | O=C(Nc1cc[nH]c1)Nc1nonc1/C(=N/O)Nc1ccc(F)c(Br)c1 [Embodiment 40, (Z)-1-(4-(N-(3-bromo-4-fluorophenyl)-N′-hydroxyaminoiminomethyl)-1,2,5-oxadiazole-3-substituted)-3-(1H-pyrrole-3-substituted)urea] | 0.1 to 1 | 0.1 to 1
2 | N=C(Nc1ccccc1)Nc1nonc1/C(=N/O)Nc1ccc(F)c(Br)c1 [Embodiment 140, (Z)-1-(4-(N-(3-bromo-4-fluorophenyl)-N′-hydroxyaminoiminomethyl)-1,2,5-oxadiazole-3-substituted)-3-phenylguanidine] | 0.1 to 1 | 0.1 to 1
3 | O=C(Nc1cocc1/C(=N/O)Nc1ccc(F)c(Br)c1)Nc1c[nH]c2ccccc12 [Embodiment 74, (Z)-1-(4-(N-(3-bromo-4-fluorophenyl)-N′-hydroxyaminoiminomethyl)-furan-3-substituted)-3-(3-aminoindole)urea] | 0.1 to 1 | 0.1 to 1
4 | OCCCNC(=S)Nc1nonc1/C(=N/O)Nc1ccc(F)c(Br)c1 [Embodiment 127, (Z)-1-(4-(N-(3-bromo-4-fluorophenyl)-N′-hydroxyaminoiminomethyl)-1,2,5-oxadiazole-3-substituted)-3-(3-hydroxypropyl)thiourea] | < 0.001 | < 0.001
5 | N=C(NCCCO)Nc1nonc1/C(=N/O)Nc1ccc(F)c(Br)c1 [Embodiment 151, (Z)-1-(4-(N-(3-bromo-4-fluorophenyl)-N′-hydroxyaminoiminomethyl)-1,2,5-oxadiazole-3-substituted)-3-(3-hydroxypropyl)guanidine] | < 0.001 | < 0.001
6 | O/N=C(\Nc1ccc(F)c(Br)c1)c1conc1NC(=S)Nc1ccccc1 [Embodiment 134, (Z)-1-(4-(N-(3-bromo-4-fluorophenyl)-N′-hydroxyaminoiminomethyl)-isoxazole-3-substituted)-3-(phenyl)thiourea] | 0.1 to 1 | 0.1 to 1
7 | O=C(Nc1ccoc1)Nc1cocc1/C(=N/O)Nc1ccc(F)c(Br)c1 [Embodiment 77] | > 1 | > 1
8 | COc1ccc(NC(=O)Nc2nonc2/C(=N/O)Nc2ccc(F)c(Br)c2)cc1C(F)(F)F [Embodiment 21, (Z)-1-(4-(N-(3-bromo-4-fluorophenyl)-N′-hydroxyaminoiminomethyl)-1,2,5-oxadiazole-3-substituted)-3-(4-methoxy-2-trifluoromethylphenyl)urea] | 0.1 to 1 | 0.1 to 1
9 | O=C(Nc1nonc1/C(=N/O)Nc1ccc(F)c(Br)c1)N1CCOCC1 [Embodiment 49, (Z)-1-(4-(N-(3-bromo-4-fluorophenyl)-N′-hydroxyaminoiminomethyl)-1,2,5-oxadiazole-3-substituted)morpholine-1-carbamide] | 0.1 to 1 | 0.1 to 1
10 | O=C(Nc1ccccc1)Nc1cocc1/C(=N/O)Nc1ccc(F)c(Br)c1 [Embodiment 60, (Z)-1-(4-(N-(3-bromo-4-fluorophenyl)-N′-hydroxyaminoiminomethyl)-furan-3-substituted)-3-phenylurea] | > 1 | > 1
11 | N#Cc1ccc(NC(=O)Nc2nonc2/C(=N/O)Nc2ccc(F)cc2)cc1 [Embodiment 57, (Z)-1-(4-(N-(4-fluorophenyl)-N′-hydroxyaminoiminomethyl)-1,2,5-oxadiazole-3-substituted)-3-(4-cyanophenyl)urea] | > 1 | > 1
12 | CS(=O)(=O)NCCNC(=O)Nc1nonc1/C(=N/O)Nc1ccc(F)c(Cl)c1 [Embodiment 29, (Z)-1-(4-(N-(3-chloro-4-fluorophenyl)-N′-hydroxyaminoiminomethyl)-1,2,5-oxadiazole-3-substituted)-3-(3-methamido-ethyl)urea] | < 0.001 | < 0.001
13 | N=C(NCCO)Nc1nonc1/C(=N/O)Nc1ccc(F)c(Br)c1 [Embodiment 152, (Z)-1-(4-(N-(3-bromo-4-fluorophenyl)-N′-hydroxyaminoiminomethyl)-1,2,5-oxadiazole-3-substituted)-3-(2-hydroxyethyl)guanidine] | < 0.001 | < 0.001
14 | O/N=C(\Nc1ccc(F)c(Br)c1)c1nonc1NC(=S)Nc1ccccc1 [Embodiment 116, (Z)-1-(4-(N-(4-bromo-3-fluorophenyl)-N′-hydroxyaminoiminomethyl)-1,2,5-oxadiazole-3-substituted)-3-phenylthiourea] | 0.1 to 1 | 0.1 to 1
15 | COc1ccc(NC(=S)Nc2nonc2/C(=N/O)Nc2ccc(F)c(Br)c2)c(F)c1 [Embodiment 120] | > 1 | > 1
16 | COc1ccc(NC(=O)Nc2cocc2/C(=N/O)Nc2ccc(F)c(Br)c2)cc1 [Embodiment 58, (Z)-1-(4-(N-(3-bromo-4-fluorophenyl)-N′-hydroxyaminoiminomethyl)-furan-3-substituted)-3-(4-methoxyphenyl)urea] | 0.1 to 1 | 0.1 to 1
17 | CCc1cccc(NC(=O)Nc2nonc2/C(=N/O)Nc2ccc(F)c(Br)c2)c1 [Embodiment 2, (Z)-1-(4-(N-(3-bromo-4-fluorophenyl)-N′-hydroxyaminoiminomethyl)-1,2,5-oxadiazole-3-substituted)-3-(3-ethylphenyl)urea] | 0.1 to 1 | 0.1 to 1

Further lines, results first:

Row | IC50 [1] [µM] | IC50 (IDO1 enzyme) [µM] | Compound
18 | > 1 | > 1 | O=C(Nc1nocc1/C(=N/O)Nc1ccc(F)c(Br)c1)NC1CCCC1 [Embodiment 83, (Z)-1-(4-(N-(3-bromo-4-fluorophenyl)-N′-hydroxyaminoiminomethyl)-isoxazole-3-substituted)-3-(cyclopentyl)urea]
19 | < 0.001 | < 0.001 | NCCCNC(=O)Nc1nocc1/C(=N/O)Nc1ccc(F)c(Br)c1 [Embodiment 88, (Z)-1-(4-(N-(3-bromo-4-fluorophenyl)-N′-hydroxyaminoiminomethyl)-isoxazole-3-substituted)-3-(3-propyl)urea]
20 | < 0.001 | < 0.001 | O=C(Nc1nonc1/C(=N/O)Nc1ccc(F)c(Br)c1)NC1CCOCC1 [Embodiment 10, (Z)-1-(4-(N-(3-bromo-4-fluorophenyl)-N′-hydroxyaminoiminomethyl)-1,2,5-oxadiazole-3-substituted)-3-(tetrahydro-2H-pyran-4-substituted)urea]
21 | 0.1 to 1 | 0.1 to 1 | O=C(Nc1conc1/C(=N/O)Nc1ccc(F)c(Br)c1)NC1CCCCC1 [Embodiment 103]
22 | < 0.001 | < 0.001 | N=C(Nc1nonc1/C(=N/O)Nc1ccc(F)c(Br)c1)NC1CCCCC1 [Embodiment 145, (Z)-1-(4-(N-(3-bromo-4-fluorophenyl)-N′-hydroxyaminoiminomethyl)-1,2,5-oxadiazole-3-substituted)-3-cyclohexylguanidine]
23 | > 1 | > 1 | O=C(Nc1nocc1/C(=N/O)Nc1ccc(F)c(Br)c1)NC1CC1 [Embodiment 86, (Z)-1-(4-(N-(3-bromo-4-fluorophenyl)-N′-hydroxyaminoiminomethyl)-isoxazole-3-substituted)-3-(cyclopropyl)urea]
24 | > 1 | > 1 | O/N=C(\Nc1ccc(F)c(Br)c1)c1nonc1NC(=S)NC1CCCC1 [Embodiment 122, (Z)-1-(4-(N-(3-bromo-4-fluorophenyl)-N′-hydroxyaminoiminomethyl)-1,2,5-oxadiazole-3-substituted)-3-(cyclopentyl)thiourea]
25 | > 1 | > 1 | O=C(Nc1ncc[nH]1)Nc1nonc1/C(=N/O)Nc1ccc(F)c(Br)c1 [Embodiment 46, (Z)-1-(4-(N-(3-bromo-4-fluorophenyl)-N′-hydroxyaminoiminomethyl)-1,2,5-oxadiazole-3-substituted)-3-(1H-imidazole-2-substituted)urea]
26 | < 0.001 | < 0.001 | O/N=C(\Nc1ccc(F)c(Br)c1)c1nonc1NC(=S)NC1CCNCC1 [Embodiment 124, (Z)-1-(4-(N-(3-bromo-4-fluorophenyl)-N′-hydroxyaminoiminomethyl)-1,2,5-oxadiazole-3-substituted)-3-(piperidine-4-substituted)thiourea]
27 | < 0.001 | < 0.001 | O/N=C(\Nc1ccc(F)c(Br)c1)c1nonc1NC(=S)NC1CCC(O)CC1 (stereo not drawn) [Embodiment 123, (Z)-1-(4-(N-(3-bromo-4-fluorophenyl)-N′-hydroxyaminoiminomethyl)-1,2,5-oxadiazole-3-substituted)-3-(4-hydroxycyclohexyl)thiourea]
28 | 0.1 to 1 | 0.1 to 1 | COc1cccc(NC(=O)Nc2conc2/C(=N/O)Nc2ccc(F)c(Br)c2)c1 [Embodiment 101, (Z)-1-(4-(N-(3-bromo-4-fluorophenyl)-N′-hydroxyaminoiminomethyl)-isoxazole-3-substituted)-4-(3-methoxyphenyl)urea]
29 | < 0.001 | < 0.001 | O=C(NCCO)Nc1conc1/C(=N/O)Nc1ccc(F)c(Br)c1 [Embodiment 110]
30 | > 1 | > 1 | O=C(Nc1ncccn1)Nc1nonc1/C(=N/O)Nc1ccc(F)c(Br)c1 [Embodiment 43, (Z)-1-(4-(N-(3-bromo-4-fluorophenyl)-N′-hydroxyaminoiminomethyl)-1,2,5-oxadiazole-3-substituted)-3-(pyrimidine-2-substituted)urea]
